Tests used:
Assay in all cases: NCI 60 cell line panel screen (SRB)
Format in all cases: cell-based, human
[1] = tested on: SR; conditions: for Log10LC50 / Log10TGI50: SR (Leukemia); for Log10LC50: LC50: PG=−50; for Log10TGI50: TGI: PG=0
[2] = tested on: HCC-2998; conditions: for Log10GI50: Colon Cancer, HCC-2998; for Log10LC50 / Log10TGI50: HCC-2998 (Colon Cancer); for Log10LC50: LC50: PG=−50; for Log10TGI50: TGI: PG=0
[3] = tested on: KM12; conditions: for Log10GI50: Colon Cancer, KM12; for Log10LC50 / Log10TGI50: KM12 (Colon Cancer); for Log10LC50: LC50: PG=−50; for Log10TGI50: TGI: PG=0
[4] = tested on: SW-620; conditions: for Log10GI50: Colon Cancer, SW-620; for Log10LC50 / Log10TGI50: SW-620 (Colon Cancer); for Log10LC50: LC50: PG=−50; for Log10TGI50: TGI: PG=0
[5] = tested on: LOX IMVI; conditions: for Log10LC50 / Log10TGI50: LOX IMVI (Melanoma); for Log10LC50: LC50: PG=−50; for Log10TGI50: TGI: PG=0; for Log10GI50: Melanoma, LOX IMVI
[6] = tested on: UACC-62; conditions: for Log10GI50: Melanoma, UACC-62; for Log10LC50 / Log10TGI50: UACC-62 (Melanoma); for Log10LC50: LC50: PG=−50; for Log10TGI50: TGI: PG=0
[7] = tested on: OVCAR-4; conditions: for Log10LC50 / Log10TGI50: OVCAR-4 (Ovarian Cancer); for Log10LC50: LC50: PG=−50; for Log10TGI50: TGI: PG=0; for Log10GI50: Ovarian Cancer, OVCAR-4
[8] = tested on: A498; conditions: for Log10LC50: LC50: PG=−50; for Log10GI50: Renal Cancer, A498
[9] = tested on: RXF 393; conditions: for Log10LC50 / Log10TGI50: RXF 393 (Renal Cancer); for Log10LC50: LC50: PG=−50; for Log10TGI50: TGI: PG=0; for Log10GI50: Renal Cancer, RXF 393
[10] = tested on: SN12C; conditions: for Log10GI50: Renal Cancer, SN12C; for Log10LC50: LC50: PG=−50
[11] = tested on: UO-31; conditions: for Log10GI50: Renal Cancer, UO-31
[12] = tested on: DU-145; conditions: for Log10LC50 / Log10TGI50: DU-145 (Prostate Cancer); for Log10LC50: LC50: PG=−50; for Log10TGI50: TGI: PG=0; for Log10GI50: Prostate Cancer, DU-145
[13] = tested on: MDA-N; conditions: for Log10GI50: Breast Cancer, MDA-N
[14] = tested on: NCI-H226
[15] = tested on: SF-295
[16] = tested on: SK-MEL-5

Q: With `CC(=O)O[C@H]1C(=O)[C@@]2(C)[C@H]([C@H](OC(=O)c3ccccc3)[C@]3(O)C[C@H](OC(=O)[C@H](O)[C@@H](NC(=O)c4ccccc4)c4ccccc4)C(C)=C1C3(C)C)[C@]1(OC(C)=O)CO[C@@H]1C[C@@H]2O` [Paclitaxel, paclitaxel, reference compound] as the compound, how does the Log10LC50 [1] read?
A: Its Log10LC50 is greater than −4.00 log10M.

Q: What about the Log10TGI50 [1] of the same compound?
A: Its Log10TGI50 is greater than −4.00 log10M.

Q: And the Log10GI50 [2]?
A: The Log10GI50 was −12.34.

Q: And the Log10LC50 [2]?
A: Its Log10LC50 is −4.26 log10M.

Q: And the Log10TGI50 [2]?
A: The Log10TGI50 was −4.77 log10M.

Q: And the Log10GI50 [3]?
A: The Log10GI50 was −11.43.

Q: And the Log10LC50 [3]?
A: Its Log10LC50 is greater than −4.00 log10M.

Q: What about the Log10TGI50 [3] of the same compound?
A: Its Log10TGI50 is −4.36 log10M.

Q: And the Log10GI50 [4]?
A: Its Log10GI50 is −11.60.

Q: What about the Log10LC50 [4] of the same compound?
A: The Log10LC50 was greater than −4.00 log10M.

Q: What about the Log10TGI50 [4] of the same compound?
A: The Log10TGI50 was greater than −4.00 log10M.

Q: What about the Log10LC50 [5] of the same compound?
A: The Log10LC50 was greater than −4.15 log10M.

Q: And the Log10TGI50 [5]?
A: Its Log10TGI50 is −4.65 log10M.

Q: And the Log10GI50 [5]?
A: Its Log10GI50 is −11.80.

Q: What about the Log10GI50 [6] of the same compound?
A: The Log10GI50 was −10.46.

Q: What about the Log10LC50 [6] of the same compound?
A: The Log10LC50 was −4.19 log10M.

Q: And the Log10TGI50 [6]?
A: The Log10TGI50 was −4.71 log10M.

Q: And the Log10LC50 [7]?
A: The Log10LC50 was greater than −4.00 log10M.

Q: And the Log10TGI50 [7]?
A: Its Log10TGI50 is −4.19 log10M.

Q: What about the Log10GI50 [7] of the same compound?
A: Its Log10GI50 is −5.00.

Q: And the Log10LC50 ([8]; A498 (Renal Cancer))?
A: The Log10LC50 was −4.13 log10M.

Q: What about the Log10GI50 [8] of the same compound?
A: Its Log10GI50 is −7.14.

Q: What about the Log10LC50 [9] of the same compound?
A: The Log10LC50 was greater than −4.00 log10M.

Q: And the Log10TGI50 [9]?
A: Its Log10TGI50 is greater than −4.00 log10M.

Q: And the Log10GI50 [9]?
A: The Log10GI50 was −8.32.

Q: What about the Log10GI50 [10] of the same compound?
A: The Log10GI50 was −9.53.

Q: And the Log10LC50 ([10]; SN12C (Renal Cancer))?
A: Its Log10LC50 is greater than −4.00 log10M.

Q: What about the Log10GI50 [11] of the same compound?
A: The Log10GI50 was −6.09.

Q: What about the Log10LC50 [12] of the same compound?
A: The Log10LC50 was greater than −4.00 log10M.

Q: And the Log10TGI50 [12]?
A: Its Log10TGI50 is greater than −4.00 log10M.

Q: And the Log10GI50 [12]?
A: The Log10GI50 was −9.38.

Q: And the Log10GI50 [13]?
A: Its Log10GI50 is less than −13.00.

Q: `CC1CCC2C(C)C(CC(CO)CC3OC4OC5(C)CCC6C(C)CCC(C3C)C46OO5)OC3OC4(C)CCC1C32OO4` (centres unmarked) [Compound 4, bis-trioxane primary alcohol] was tested. Which Log10GI50 ([1]; Leukemia, SR) did it give?
A: The Log10GI50 was less than −8.00.

Q: What about the Log10LC50 [1] of the same compound?
A: The Log10LC50 was greater than −4.00 log10M.

Q: What about the Log10TGI50 [1] of the same compound?
A: Its Log10TGI50 is −4.58 log10M.

Q: And the Log10LC50 ([14]; NCI-H226 (Non-Small Cell Lung Cancer), LC50: PG=−50)?
A: Its Log10LC50 is greater than −4.00 log10M.

Q: What about the Log10TGI50 ([14]; NCI-H226 (Non-Small Cell Lung Cancer), TGI: PG=0) of the same compound?
A: Its Log10TGI50 is −4.40 log10M.

Q: What about the Log10GI50 ([14]; Non-Small Cell Lung Cancer, NCI-H226) of the same compound?
A: Its Log10GI50 is −4.82.

Q: And the Log10GI50 [2]?
A: Its Log10GI50 is −7.45.

Q: What about the Log10LC50 [2] of the same compound?
A: The Log10LC50 was −4.59 log10M.

Q: And the Log10TGI50 [2]?
A: Its Log10TGI50 is −5.39 log10M.

Q: And the Log10GI50 [3]?
A: The Log10GI50 was less than −8.00.

Q: What about the Log10LC50 [3] of the same compound?
A: Its Log10LC50 is −4.29 log10M.

Q: What about the Log10TGI50 [3] of the same compound?
A: The Log10TGI50 was −4.79 log10M.

Q: What about the Log10GI50 [4] of the same compound?
A: Its Log10GI50 is less than −8.00.

Q: What about the Log10LC50 [4] of the same compound?
A: The Log10LC50 was −4.44 log10M.

Q: What about the Log10TGI50 [4] of the same compound?
A: The Log10TGI50 was −4.89 log10M.

Q: And the Log10GI50 ([15]; CNS Cancer, SF-295)?
A: Its Log10GI50 is −5.59.

Q: And the Log10LC50 ([15]; SF-295 (CNS Cancer), LC50: PG=−50)?
A: Its Log10LC50 is −4.39 log10M.

Q: And the Log10TGI50 ([15]; SF-295 (CNS Cancer), TGI: PG=0)?
A: The Log10TGI50 was −4.80 log10M.

Q: What about the Log10LC50 [5] of the same compound?
A: Its Log10LC50 is greater than −4.00 log10M.

Q: What about the Log10TGI50 [5] of the same compound?
A: The Log10TGI50 was −4.45 log10M.

Q: And the Log10GI50 [5]?
A: The Log10GI50 was −7.26.

Q: And the Log10GI50 ([16]; Melanoma, SK-MEL-5)?
A: Its Log10GI50 is −7.90.

Q: And the Log10LC50 ([16]; SK-MEL-5 (Melanoma), LC50: PG=−50)?
A: The Log10LC50 was −4.53 log10M.

Q: And the Log10TGI50 ([16]; SK-MEL-5 (Melanoma), TGI: PG=0)?
A: The Log10TGI50 was −7.18 log10M.

Q: What about the Log10GI50 [6] of the same compound?
A: The Log10GI50 was −6.86.

Q: What about the Log10LC50 [6] of the same compound?
A: The Log10LC50 was −4.29 log10M.

Q: What about the Log10TGI50 [6] of the same compound?
A: The Log10TGI50 was −4.74 log10M.

Q: And the Log10LC50 [7]?
A: Its Log10LC50 is −4.16 log10M.

Q: What about the Log10TGI50 [7] of the same compound?
A: The Log10TGI50 was −4.62 log10M.

Q: And the Log10GI50 [7]?
A: The Log10GI50 was −5.44.

Q: And the Log10LC50 ([8]; A498 (Renal Cancer))?
A: The Log10LC50 was −4.50 log10M.

Q: And the Log10TGI50 ([8]; A498 (Renal Cancer), TGI: PG=0)?
A: The Log10TGI50 was −5.00 log10M.

Q: What about the Log10GI50 [8] of the same compound?
A: The Log10GI50 was −6.69.

Q: And the Log10LC50 [9]?
A: Its Log10LC50 is −4.01 log10M.

Q: And the Log10TGI50 [9]?
A: Its Log10TGI50 is −4.41 log10M.

Q: And the Log10GI50 [9]?
A: The Log10GI50 was −4.80.

Q: And the Log10GI50 [10]?
A: Its Log10GI50 is −7.46.

Q: What about the Log10LC50 ([10]; SN12C (Renal Cancer)) of the same compound?
A: Its Log10LC50 is −4.35 log10M.

Q: And the Log10TGI50 ([10]; SN12C (Renal Cancer), TGI: PG=0)?
A: Its Log10TGI50 is −4.84 log10M.

Q: What about the Log10GI50 [11] of the same compound?
A: The Log10GI50 was −7.46.

Q: And the Log10LC50 ([11]; UO-31 (Renal Cancer), LC50: PG=−50)?
A: The Log10LC50 was −5.14 log10M.

Q: What about the Log10TGI50 ([11]; UO-31 (Renal Cancer), TGI: PG=0) of the same compound?
A: Its Log10TGI50 is −5.77 log10M.

Q: And the Log10LC50 [12]?
A: Its Log10LC50 is −4.36 log10M.

Q: What about the Log10TGI50 [12] of the same compound?
A: Its Log10TGI50 is −4.72 log10M.

Q: And the Log10GI50 [12]?
A: Its Log10GI50 is −6.24.

Q: What about the Log10GI50 [13] of the same compound?
A: Its Log10GI50 is −7.54.

Q: And the Log10LC50 ([13]; MDA-N (Breast Cancer), LC50: PG=−50)?
A: The Log10LC50 was −4.45 log10M.

Q: What about the Log10TGI50 ([13]; MDA-N (Breast Cancer), TGI: PG=0) of the same compound?
A: The Log10TGI50 was −4.90 log10M.

From patent US7417156B2, “Orally active, antimalarial, anticancer, artemisinin-derived trioxane dimers” (Johns Hopkins University, priority 2002, dated 2008)
